Patent US20100203647A1, “Chemical Reporters of Protein Acylation” (THE ROCKEFELLER UNIVERSITY, priority 2008, published 2010)
Entries after “also recorded” stand apart in the source; their conditions may differ.

Assays:
Jurkat cells [1] = test: Metabolic labeling with inhibitors; settings: for class of acylated proteins targeted by the reporter: from CHX and NH2OH sensitivity in Jurkat cell lysates
Lck = test: Pulse-chase tandem imaging of palmitate turnover on Lck in Jurkat T cells; type: cell-based, human; settings: for effect of chemical inhibitor on palmitate turnover on Lck: added during the chase, 20 μM MAFP, 100 μM 2BP; for decay of reporter signal on Lck with excess myristate as the chase additive: over 6 hours
p300 = target: T1, p300 (Homo sapiens, UniProt Q09472); test: MALDI-TOF analysis of p300-catalyzed acylation of histone H3 peptide in vitro; type: biochemical; settings: 20 μM analog, MS analysis
T1 construct: made in house; host or cells: SF9 insect cells, baculovirus
Description: Cells were lysed in lysis buffer (20 mM Tris, pH 7.5, 500 mM NaCl, 4 mM MgCl2, 0.4 mM EDTA, 20% glycerol, 2 mM DTT, and supplemented with protease inhibitors). Clarified cell lysates were diluted to 300 mM NaCl, and NP-40 was added to 0.1% final concentration. Flag M2 agarose resin (Sigma) was added to the lysate and incubated for 4 hours at 4° C. […] Protein concentration and purity were estimated by comparison to BSA standards on SDS gels stained with Gelcode Blue stain (Pierce).

Jurkat T cells [2] = test: Metabolic labeling of Jurkat T cells with alkynyl-acetate analogs, CuAAC with az-Rho, in-gel fluorescence scanning; settings: metabolically-labeled Jurkat T cells
Jurkat T cells [3] = test: Proteomic analysis and modification site mapping of alkynyl-acetate analog-labeled proteins; type: cell-based, human; settings: for qualitative comparison among alkynyl-acetate analogs as chemical reporter for protein acetylation: proteomics data and in vitro p300-acylation studies
[4] = tested on: acetylated proteins such as histones; test: Metabolic labeling of acetylated proteins with very short chain alkynyl-chemical reporters, in-gel fluorescence; type: cell-based, human
M. smegmatis = test: Labeling of acylated proteins in bacterial cells with alkynyl-chemical reporters; type: cell-based
Lck and LAT = test: Hydroxylamine cleavage of S-acylated proteins (in-gel), immunoprecipitated Lck and LAT; type: cell-based, human; settings: 1 M NH2OH pH 7.4; alk-16 on Lck and LAT, alk-12 on Lck
Description: (§1) Cell lysates were collected after centrifuging at 1,000 g for 5 minutes at 4° C. to remove cell debris. Protein concentration was determined by the BCA assay. Typical lysate protein concentration obtained: 6-8 mg/mL. LAT, Lck and Ras proteins were immunoprecipitated from 200 μg Jurkat cell lysate using the following antibodies at recommended concentrations: mouse anti-Lck (p56lck) monoclonal (Clone 3A5, Thermo Scientific, Waltham, Mass., USA), rat anti-v-H-ras (Ab-1) monoclonal (Y13-259 agarose conjugate, Calbiochem, San Diego, Calif., USA), and rabbit anti-LAT polyclonal (Millipore, Billerica, Mass., USA). A rabbit anti-Fyn polyclonal (Millipore, Billerica, Mass., USA) was used to immunoprecipitate wild type and mutant Fyn proteins from transfected and metabolically labeled HeLa cells. 25 μL of packed protein A-agarose beads (Roche, Mannheim, Germany) was used per sample.
The gel was finally washed with deionized water (2×5 minutes) and scanned for the post-hydroxylamine treatment fluorescence.

[5] = In vivo labeling of acylated proteins after intraperitoneal injection of alkynyl-chemical reporters; settings: mice, one hour, splenocytes, liver
Description: (§2) Livers were harvested and incubated with Liberase 3 Blendzyme™ (Roche, Mannheim, Germany) at 37° C. for 30 minutes+ and homogenized prior to filtration with 0.4 μm cell strainers. Splenocytes were prepared by manual disruption of spleens using forceps. Liver and splenocyte preparations were subjected to red blood cell lysis using ACK lysis buffer.
as §2, with “Livers and kidney” for “Livers”, “Blendzyme” for “Blendzyme™”, “minutes” for “minutes+”, “Liver, kidney” for “Liver”

Fyn [6] = target: T2, Fyn (Homo sapiens, UniProt P06241); test: Alkynyl-fatty acid labeling of wild type, G2A and C3,6S Fyn overexpressed in HeLa cells, immunoprecipitation; type: cell-based; settings: 20 μM reporter
T2 construct: expressed in transfected cells; host or cells: HeLa cells
Description: (§3) HeLa cells were grown in 10 cm dishes to approximately 90% confluence in DMEM, supplemented with 10% FBS, and transfected with wildtype, G2A or C3,6S Fyn constructs using Lipofectamine 2000 (Invitrogen). The human Fyn constructs, wild type and mutant Fyn cDNAs cloned into eukaryotic expression vector pCMV5, were gifts from Dr. Marilyn Resh, Memorial Sloan-Kettering Cancer Center. The following day, cells were metabolically labeled with alkynyl-fatty acid analogs as described above.
as §1

Fyn [7] = target: T3, Fyn (Homo sapiens, UniProt P06241, G2A); test: as above; type: cell-based; settings: 20 μM reporter
T3 construct: expressed in transfected cells; host or cells: HeLa cells
Description: as §3, §1

Fyn [8] = target: T4, Fyn (Homo sapiens, UniProt P06241, C3S/C6S); test: as above; type: cell-based; settings: 20 μM reporter
T4 construct: expressed in transfected cells; host or cells: HeLa cells
Description: as §3, §1

[9] = Absorbance and fluorescence studies of clickable CyFur dyes; type: physicochemical; settings: for εmax^b (M^−1cm^−1): in MeOH, at 470 nm for az-CyFur-1, az-CyFur-2 and at 580 nm for alk-CyFur, averaged over three independent experiments; for ΦF^c: quantum yield referenced against cresyl violet, alk-CyFur excited at 580 nm, az-CyFur-1 and az-CyFur-2 at 470 nm; for λmax^a (nm) (first column) / λmax^a (nm) (second column): spectra obtained in DMSO
Description: Absorbance and fluorescence studies. Absorption spectra and fluorescence data were collected on SpectraMax M2 multi-detection reader (Molecular Devices). The spectra in solution were obtained at 25° C. using a quartz cuvette with a path length of 1 cm. Fluorescence quantum yields (ΦF) of CyFur dyes were determined against cresyl violet (ΦF=0.54 in methanol).

Jurkat T cell lysates = test: Streptavidin affinity enrichment and Na2S2O4 elution of azido-chemical reporter labeled Jurkat T cell lysates reacted with alk-diazo-biotin; type: cell-based, human; settings: Coomassie staining of polypeptides eluted from streptavidin beads
[10] = tested on: metabolic incorporation of chemical reporters; test: Effect of inhibitors/additives on metabolic incorporation of alkynyl-chemical reporters; type: cell-based
Jurkat cells [11] = test: Competition of metabolic labeling with naturally occurring fatty acids; settings: 2 hours, myristic acid 0, 10 or 100 μM, palmitic acid 0, 100 or 200 μM

T3 sequence (P06241 2-537 G2A): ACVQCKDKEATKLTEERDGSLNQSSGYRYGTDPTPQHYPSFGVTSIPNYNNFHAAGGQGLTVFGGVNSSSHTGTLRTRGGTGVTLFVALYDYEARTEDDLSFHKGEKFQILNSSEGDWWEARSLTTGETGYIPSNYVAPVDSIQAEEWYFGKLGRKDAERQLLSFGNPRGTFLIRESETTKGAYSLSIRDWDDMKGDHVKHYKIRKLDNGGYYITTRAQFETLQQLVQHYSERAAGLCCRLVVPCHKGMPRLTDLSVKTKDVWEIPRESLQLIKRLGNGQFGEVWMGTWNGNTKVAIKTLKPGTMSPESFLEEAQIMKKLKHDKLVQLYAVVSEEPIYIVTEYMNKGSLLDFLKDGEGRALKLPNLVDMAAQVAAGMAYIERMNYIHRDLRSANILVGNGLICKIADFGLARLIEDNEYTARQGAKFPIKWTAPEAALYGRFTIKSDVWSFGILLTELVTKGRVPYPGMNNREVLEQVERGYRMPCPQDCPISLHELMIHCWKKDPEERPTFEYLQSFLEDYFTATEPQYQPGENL
T1 sequence (Q09472 whole entry): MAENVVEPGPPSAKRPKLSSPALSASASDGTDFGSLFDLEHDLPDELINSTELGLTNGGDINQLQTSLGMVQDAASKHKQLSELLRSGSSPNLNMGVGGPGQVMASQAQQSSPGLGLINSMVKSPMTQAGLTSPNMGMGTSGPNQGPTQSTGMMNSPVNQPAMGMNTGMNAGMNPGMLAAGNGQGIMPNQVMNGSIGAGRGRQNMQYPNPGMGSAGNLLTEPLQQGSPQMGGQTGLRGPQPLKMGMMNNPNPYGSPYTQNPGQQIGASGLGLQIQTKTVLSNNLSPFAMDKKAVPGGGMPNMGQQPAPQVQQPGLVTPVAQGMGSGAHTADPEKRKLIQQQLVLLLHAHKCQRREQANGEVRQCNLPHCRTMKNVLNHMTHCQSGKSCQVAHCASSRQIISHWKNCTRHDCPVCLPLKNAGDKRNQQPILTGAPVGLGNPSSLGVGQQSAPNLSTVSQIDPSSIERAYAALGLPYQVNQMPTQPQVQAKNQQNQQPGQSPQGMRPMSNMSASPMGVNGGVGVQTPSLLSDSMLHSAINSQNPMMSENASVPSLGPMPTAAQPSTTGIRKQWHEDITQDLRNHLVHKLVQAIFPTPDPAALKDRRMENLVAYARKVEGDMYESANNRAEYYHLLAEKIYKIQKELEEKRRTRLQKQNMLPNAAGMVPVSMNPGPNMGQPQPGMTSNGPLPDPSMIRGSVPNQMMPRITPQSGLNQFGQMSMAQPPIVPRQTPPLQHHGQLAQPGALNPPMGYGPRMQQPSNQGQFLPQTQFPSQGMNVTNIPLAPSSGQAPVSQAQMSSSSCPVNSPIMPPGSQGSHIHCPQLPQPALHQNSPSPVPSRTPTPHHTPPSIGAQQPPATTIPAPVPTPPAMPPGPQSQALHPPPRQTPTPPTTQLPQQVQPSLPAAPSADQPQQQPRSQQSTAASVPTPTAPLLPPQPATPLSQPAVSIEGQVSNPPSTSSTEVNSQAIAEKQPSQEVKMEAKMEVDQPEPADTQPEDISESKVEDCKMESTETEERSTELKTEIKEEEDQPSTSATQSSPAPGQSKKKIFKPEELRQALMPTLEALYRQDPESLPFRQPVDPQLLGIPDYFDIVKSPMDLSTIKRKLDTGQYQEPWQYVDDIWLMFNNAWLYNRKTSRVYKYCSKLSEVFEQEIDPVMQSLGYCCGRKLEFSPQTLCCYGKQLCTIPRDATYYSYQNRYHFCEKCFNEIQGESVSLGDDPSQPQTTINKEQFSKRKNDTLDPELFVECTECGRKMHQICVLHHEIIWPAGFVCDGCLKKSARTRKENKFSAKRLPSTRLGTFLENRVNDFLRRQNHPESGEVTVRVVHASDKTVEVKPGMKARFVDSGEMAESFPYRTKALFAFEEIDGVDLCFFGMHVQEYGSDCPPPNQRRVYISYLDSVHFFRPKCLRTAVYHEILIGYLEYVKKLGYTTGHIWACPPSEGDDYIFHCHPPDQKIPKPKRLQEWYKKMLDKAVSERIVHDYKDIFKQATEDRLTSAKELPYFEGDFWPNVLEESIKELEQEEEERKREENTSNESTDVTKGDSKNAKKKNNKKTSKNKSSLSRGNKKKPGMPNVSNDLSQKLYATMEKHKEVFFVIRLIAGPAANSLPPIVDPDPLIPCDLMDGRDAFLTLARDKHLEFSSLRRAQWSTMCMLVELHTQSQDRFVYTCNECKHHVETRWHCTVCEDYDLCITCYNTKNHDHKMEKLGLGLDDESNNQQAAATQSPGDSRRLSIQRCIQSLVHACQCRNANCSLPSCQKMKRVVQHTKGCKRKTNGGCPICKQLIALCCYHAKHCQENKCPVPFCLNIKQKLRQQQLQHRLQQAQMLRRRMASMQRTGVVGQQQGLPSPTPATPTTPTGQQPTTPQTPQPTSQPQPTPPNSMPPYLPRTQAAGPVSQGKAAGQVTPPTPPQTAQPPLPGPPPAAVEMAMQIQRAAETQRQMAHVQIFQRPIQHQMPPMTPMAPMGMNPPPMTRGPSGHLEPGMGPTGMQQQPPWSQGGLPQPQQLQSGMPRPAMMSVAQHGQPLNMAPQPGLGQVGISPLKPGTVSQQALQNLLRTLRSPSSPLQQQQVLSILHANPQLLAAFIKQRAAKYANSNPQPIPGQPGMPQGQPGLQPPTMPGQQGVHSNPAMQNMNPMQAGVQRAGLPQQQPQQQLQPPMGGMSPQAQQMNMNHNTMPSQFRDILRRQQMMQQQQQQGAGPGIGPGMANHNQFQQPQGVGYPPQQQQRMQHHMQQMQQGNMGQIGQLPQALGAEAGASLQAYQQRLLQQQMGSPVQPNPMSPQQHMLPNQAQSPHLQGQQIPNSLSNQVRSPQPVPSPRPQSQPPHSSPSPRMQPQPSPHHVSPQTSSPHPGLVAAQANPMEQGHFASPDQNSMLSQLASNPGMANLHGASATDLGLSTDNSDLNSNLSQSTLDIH
T2 sequence (P06241 2-537): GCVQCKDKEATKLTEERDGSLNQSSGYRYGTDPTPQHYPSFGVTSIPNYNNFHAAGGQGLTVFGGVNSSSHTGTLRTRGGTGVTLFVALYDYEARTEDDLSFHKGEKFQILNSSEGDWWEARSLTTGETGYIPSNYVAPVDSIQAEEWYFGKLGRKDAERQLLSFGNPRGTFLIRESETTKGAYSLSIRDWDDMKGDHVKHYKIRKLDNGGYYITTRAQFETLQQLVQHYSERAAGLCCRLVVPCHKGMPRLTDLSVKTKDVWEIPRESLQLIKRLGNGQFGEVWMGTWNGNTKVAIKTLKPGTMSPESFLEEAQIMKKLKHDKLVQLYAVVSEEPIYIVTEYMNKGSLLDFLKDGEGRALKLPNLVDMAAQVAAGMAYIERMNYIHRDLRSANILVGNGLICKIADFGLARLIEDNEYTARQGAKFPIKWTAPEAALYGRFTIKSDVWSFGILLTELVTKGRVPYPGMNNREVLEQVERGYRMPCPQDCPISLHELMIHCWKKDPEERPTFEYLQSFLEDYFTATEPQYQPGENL
T4 sequence (P06241 2-537 C3S/C6S): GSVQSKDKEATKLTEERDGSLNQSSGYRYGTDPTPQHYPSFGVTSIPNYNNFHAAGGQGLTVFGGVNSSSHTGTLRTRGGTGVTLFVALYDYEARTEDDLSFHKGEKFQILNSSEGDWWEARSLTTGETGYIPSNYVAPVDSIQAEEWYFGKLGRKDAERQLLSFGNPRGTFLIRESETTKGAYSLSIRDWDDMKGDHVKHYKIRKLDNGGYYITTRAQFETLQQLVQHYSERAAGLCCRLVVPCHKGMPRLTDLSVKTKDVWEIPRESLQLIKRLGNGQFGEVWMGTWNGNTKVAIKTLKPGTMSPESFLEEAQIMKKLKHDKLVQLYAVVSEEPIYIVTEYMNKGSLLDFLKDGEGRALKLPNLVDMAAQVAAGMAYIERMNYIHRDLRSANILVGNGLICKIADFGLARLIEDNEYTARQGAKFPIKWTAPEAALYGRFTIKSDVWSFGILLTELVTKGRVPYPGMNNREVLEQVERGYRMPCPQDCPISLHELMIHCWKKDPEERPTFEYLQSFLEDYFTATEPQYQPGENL

## CCCCCCCCCCCCCCC(Br)C(=O)O (stereo not drawn) [2-BP, 2-bromopalmitate, reference compound]
Jurkat cells [1]; Jurkat cells, CHX 10 μM, HMA 1 mM, 2-BP 50 μM, 30 minutes pre-incubation
  effect of inhibitor on alkynyl-fatty acid protein labeling (alk-12, alk-14, alk-16, 20 μM): reduced protein labeling with alk-12, alk-14 and alk-16
Lck
  effect of chemical inhibitor on palmitate turnover on Lck: decreased Lck depalmitoylation rate

## C#CCCSCCNC(=O)CCNC(=O)[C@H](O)C(C)(C)COP(=O)(O)OP(=O)(O)OC[C@H]1O[C@@H](n2cnc3c(N)ncnc32)[C@H](O)[C@@H]1OP(=O)(O)O [Analog 1, 3-butynyl-CoA]
p300
  utilization as acyl-CoA donor for p300-catalyzed acylation of histone H3 peptide: does not appear to be utilized efficiently by p300
p300; listed as 3-butynyl-CoA
  utilization as acyl-CoA donor for p300-catalyzed acylation of histone H3 peptide: not efficiently utilized by p300 in vitro

## C#CCC(=O)[O-].[Na+] [Analog 4, sodium 3-butynoate]
Jurkat T cells [2]
  labeling of known lysine-acetylated proteins (enriched core histones, immunoprecipitated histone H3): specifically labeled

## C#CCCC(=O)[O-].[Na+] [Analog 5, sodium 4-pentynoate]
Jurkat T cells [2]
  labeling of known lysine-acetylated proteins (enriched core histones, immunoprecipitated histone H3): specifically labeled
Jurkat T cells [3]; Jurkat T cell lysates
  sites of metabolic incorporation (MS/MS of enriched peptides): metabolically incorporated into known sites of lysine acetylation on histone H2B, H3 and H4
Jurkat T cells [3]; Jurkat T cells
  labeled proteins also identified by anti-acetyl-Lys proteomic studies: 86%
Jurkat T cells [3]; Jurkat T cells, three independent experiments
  number of labeled proteins identified: approximately 194
Jurkat T cells [3]
  qualitative comparison among alkynyl-acetate analogs as chemical reporter for protein acetylation: optimal chemical reporter for detecting protein acetylation

## C#CCCCC(=O)[O-].[Na+] [Analog 6, sodium 5-hexynoate]
Jurkat T cells [2]
  labeling of known lysine-acetylated proteins (enriched core histones, immunoprecipitated histone H3): specifically labeled
Jurkat T cells [3]
  qualitative comparison among alkynyl-acetate analogs as chemical reporter for protein acetylation: may also target cellular fatty-acylated proteins

## O=S(=O)(F)Cc1ccccc1 [PMSF, phenylmethylsulfonyl fluoride, reference compound]
Lck
  effect of chemical inhibitor on palmitate turnover on Lck: no apparent effect on the initial rate of palmitate removal

## C#CCC(=O)O [alk-2, buta-3-ynoic acid]
[4]
  labeling of acetylated proteins: found to label acetylated proteins such as histones
M. smegmatis
  labeling of proteins in bacterial cells: labeled distinct proteins

## C#CCCCC(=O)O [alk-4, hexa-5-ynoic acid]
[4]
  labeling of acetylated proteins: found to label acetylated proteins such as histones
  relative efficiency of labeling acetylated proteins among alk-2, alk-3, alk-4: most efficient labeling of acetylated proteins; also recorded: more efficient
M. smegmatis
  labeling of proteins in bacterial cells: labeled distinct proteins

## C#CCCCCCCCCCCCC(=O)O [alk-12, Tetradec-13-ynoic acid]
Jurkat cells [1]
  class of acylated proteins targeted by the reporter: cotranslationally targets N-myristoylated proteins
Lck and LAT
  effect of in-gel NH2OH treatment on fluorescent signal of reporter-labeled protein: did not alter
[5]
  profile of acylated proteins after in vivo labeling: discrete profile of acylated proteins from splenocytes similar to ex vivo labeling
M. smegmatis
  labeling of proteins in bacterial cells: labeled distinct proteins
Fyn [6]
  fatty-acylation of wild-type Fyn: readily detected
Fyn [7]
  labeling of N-myristoylation G2A-mutant Fyn: significantly reduced
Fyn [8]
  labeling of dual S-palmitoylation-deficient C3,6S mutant Fyn: efficiently labeled

## C#CCCCCCCCCCCCCCC(=O)O [alk-14, Hexadec-15-ynoic acid]
Jurkat cells [1]
  class of acylated proteins targeted by the reporter: appears to represent a combination of alk-12 and alk-16 labeling

## C#CCCCCCCCCCCCCCCCC(=O)O [alk-16, Octadec-17-ynoic acid]
Jurkat cells [1]
  class of acylated proteins targeted by the reporter: preferentially labels S-acylated proteins
Lck and LAT
  effect of in-gel NH2OH treatment on fluorescent signal of reporter-labeled protein: reduced the fluorescent signal
[5]
  profile of acylated proteins after in vivo labeling: did not reveal discrete profiles of acylated proteins in splenocytes or liver
Lck
  decay of reporter signal on Lck with excess myristate as the chase additive: No significant decay
M. smegmatis
  labeling of proteins in bacterial cells: labeled distinct proteins
Fyn [6]
  fatty-acylation of wild-type Fyn: readily detected
Fyn [7]
  labeling of N-myristoylation G2A-mutant Fyn: undetectable

## C#CCCNc1ccc(/C=C/C2=C(C#N)C(=C(C#N)C#N)OC2(C)C)cc1 [alk-CyFur, (E)-2-(4-(4-(but-3-ynylamino)styryl)-3-cyano-5,5-dimethylfuran-2(5H)-ylidene)malononitrile]
[9]
  absorption (abs) maxima: 580 nm
  emission (em) maxima: 640 nm
  εmax^b (M^−1cm^−1): 33,933 M^−1cm^−1
  ΦF^c: 0.0147
  λmax^a (nm) (first column): 580 nm
  λmax^a (nm) (second column): 640 nm

## [N-]=[N+]=NCCCCCCCCCCCC(=O)O [az-12, 12-azido-dodecanoic acid]
Lck
  decay of reporter signal on Lck with excess myristate as the chase additive: No significant decay
Jurkat T cell lysates
  proteins recovered from labeled cell lysates compared to control (-): significantly greater amounts of proteins recovered

## [N-]=[N+]=NCCCCCCCCCCCCCCC(=O)O [az-15, 15-azido-pentadecanoic acid]
Jurkat T cell lysates
  proteins recovered from labeled cell lysates compared to control (-): significantly greater amounts of proteins recovered

## CC1(C)OC(=C(C#N)C#N)C(C#N)=C1/C=C/c1ccc(NC(=O)OCCN=[N+]=[N-])cc1 [az-CyFur-1]
[9]
  absorption (abs) maxima: 470 nm
  emission (em) maxima: 580 nm
  εmax^b (M^−1cm^−1): 20,533 M^−1cm^−1
  ΦF^c: 0.0067
  λmax^a (nm) (first column): 470 nm
  λmax^a (nm) (second column): 580 nm

## CCCC(=O)O [butyric acid]
[10]
  effect on labeling of acetylated proteins with alk-4: inhibited

## CCCCCCCCCCCCCC(=O)O [myristic acid]
Jurkat cells [11]
  competition of alkynyl-fatty acid protein labeling (alk-12, alk-14, alk-16, 10 μM): alk-12 protein labeling is selectively blocked

## CCCCCCCCCCCCCCCC(=O)O [palmitic acid]
Jurkat cells [11]
  competition of alkynyl-fatty acid protein labeling (alk-12, alk-14, alk-16, 10 μM): alk-14 and alk-16 protein labeling is most effectively reduced
